Test results published in ChEMBL document CHEMBL1143634, “Calculating virtual log P in the alkane/water system (log P(N)(alk)) and its derived parameters deltalog P(N)(oct-alk) and log D(pH)(alk)” (J Med Chem, 2005).

Test: Lipophilicity determined as logarithm of the partition coefficient in the alkane/water system
Conditions: octanol/water

Row | Structure (SMILES) | Log PNalk
1 | CCOC(C)=O [ETHYL ACETATE] | 0.29
2 | [O-][S+](c1ccccc1)c1ccccc1 | 0.67
3 | Brc1ccccc1 [BROMOBENZENE] | 3.12
4 | NCc1ccccc1 [BENZYLAMINE] | -0.21
5 | CC(C)Cc1ccc(C(C)C(=O)O)cc1 (centres undefined) [IBUPROFEN] | 2.08
6 | CC(Cl)(Cl)Cl [TRICHLOROETHANE] | 2.71
7 | CC(C(=O)O)c1ccc(-c2ccccc2)c(F)c1 (centres undefined) [FLURBIPROFEN] | 1.49
8 | COc1ccccc1 [ANISOLE] | 2.15
9 | Cc1ccc(O)c(C)c1 | 0.34
10 | O=C(O)C(Cl)(Cl)Cl [TRICHLOROACETIC ACID] | -2.63
11 | [O-][n+]1ccc(-c2ccccc2)cc1 | -2.36
12 | O=C(O)Cc1ccccc1 [PHENYLACETIC ACID] | -1.6
13 | O=Cc1ccccc1 [BENZALDEHYDE] | 1.12
14 | C1CCSC1 [TETRAHYDROTHIOPHENE] | 1.59
15 | CCCCCCCO [1-HEPTANOL] | 1.01
16 | O=[N+]([O-])c1ccc(/C=N/O)o1 [NIFUROXIME] | -1.1
17 | CCCOC(C)=O [ACETIC ACID PROPYL ESTER] | 0.9
18 | O=C(O)CCl [CHLOROACETIC ACID] | -3.14
19 | COc1ccccc1C(=O)O | 2.08
20 | Oc1ccccc1Cl [2-CHLOROPHENOL] | 0.76
21 | [O-][n+]1cccc2ccccc21 | -2.05
22 | NC1=NCC2c3ccccc3Cc3ccccc3N12 (centres undefined) [EPINASTINE] | 1.76
23 | COc1ccc(O)cc1 [MEQUINOL] | -1.03

Row | Structure (SMILES) | Log PNalk
24 | N#Cc1ccccc1 [BENZONITRILE] | 0.9
25 | Cc1ccccc1O [ORTHOCRESOL] | 0.25
26 | CC1CCc2cc(F)cc3c(=O)c(C(=O)O)cn1c23 (centres undefined) [FLUMEQUINE] | -1.37
27 | Cc1cc(C)cc(O)c1 | 0.32
28 | CCCCNc1ccc(C(=O)OCCN(C)C)cc1 [TETRACAINE] | 1.75
29 | O=[N+]([O-])c1cccc(O)c1 [3-NITRO-PHENOL] | -1.23
30 | CCCCN [BUTYLAMINE] | -0.62
31 | c1ccc2ncccc2c1 [QUINOLINE] | 1.26
32 | Cc1ccc(C)c(O)c1 | 0.38
33 | CN[C@@H](C)[C@H](O)c1ccccc1 [EPHEDRINE] | -0.77
34 | N=C(N)N/N=C/c1c(Cl)cccc1Cl [GUANABENZ] | -1.6
35 | C[C@]12CCC(=O)C=C1CC[C@@H]1[C@@H]2[C@@H](O)C[C@]2(C=O)[C@@H](C(=O)CO)CC[C@@H]12 [ALDOSTERONE] | -2.7
36 | OCCOCCN1CCN(C(c2ccccc2)c2ccc(Cl)cc2)CC1 (centres undefined) [HYDROXYZINE] | 1.25
37 | CC(C)c1ccccc1O | 0.96
38 | Nc1ccc(Cl)cc1 [4-CHLOROANILINE] | 0.57
39 | COC(C)=O [ACETIC ACID METHYL ESTER] | -0.26
40 | CCC1(CC)C(=O)NC(=O)NC1=O [BARBITAL] | -2.15
41 | COc1ccc2c(c1)c(CC(=O)O)c(C)n2C(=O)c1ccc(Cl)cc1 [INDOMETHACIN] | 0.98
42 | C[C@]12CC[C@H]3[C@@H](CCC4=CC(=O)CC[C@@]43C)[C@@H]1CC[C@@H]2C(=O)CO [DESOXYCORTICOSTERONE] | 0.48
43 | Nc1cccc([N+](=O)[O-])c1 [3-NITROANILINE] | -0.46
44 | CC(C)(C)c1ccc(C(O)CCCN2CCC(C(O)(c3ccccc3)c3ccccc3)CC2)cc1 (centres undefined) [TERFENADINE] | 2.63
45 | COc1cccc([C@@]2(O)CCCC[C@@H]2CN(C)C)c1 [TRAMADOL] | 1.82
46 | CC(C)(C)NC[C@H](O)COc1ccccc1C1CCCC1 [PENBUTOLOL] | 3.06

Row | Structure (SMILES) | Log PNalk
47 | CCN [ETHYLAMINE] | -1.77
48 | CSC | 0.98
49 | C[C@]12CCC(=O)C=C1CC[C@@H]1[C@@H]2CC[C@@]2(C)[C@H]1CC[C@]2(O)C(=O)CO [CORTODOXONE] | -1
50 | CN1CCC[C@H]1c1cccnc1 [NICOTINE] | 0.03
51 | Ic1ccccc1 [IODOBENZENE] | 3.33
52 | O=C(O)c1cccc([N+](=O)[O-])c1 | -1.22
53 | C[C@]12C[C@H](O)[C@H]3[C@@H](CCC4=CC(=O)CC[C@@]43C)[C@@H]1CC[C@@H]2C(=O)CO [CORTICOSTERONE] | -1.62
54 | CNc1ccccc1 | 1.11
55 | CCCCC [PENTANE] | 4.18
56 | Cc1ccc(O)cc1 [p-CRESOL] | -0.19
57 | CC(C1=C(CCN(C)C)Cc2ccccc21)c1ccccn1 (centres undefined) | 1.65
58 | C[C@]12CC[C@@H]3c4ccc(O)cc4CC[C@H]3[C@@H]1CC[C@@H]2O [ESTRADIOL] | -0.2
59 | O=C(O)c1ccccc1O [SALICYLIC ACID] | -0.92
60 | CCC(C)=O [BUTANONE] | -0.25
61 | CC(C)=O [ACETONE] | -0.91
62 | CN(C)c1ccccc1 | 2.4
63 | CN(C)CCCN1c2ccccc2Sc2ccc(Cl)cc21 [CHLORPROMAZINE] | 4.37
64 | CN1C(=O)NC(=O)C(C)(C2=CCCCC2)C1=O (centres undefined) [HEXOBARBITAL] | -0.57
65 | CC(=O)Nc1ccccc1 [ACETANILIDE] | -1.7
66 | CS(=O)(=O)c1ccccc1 [METHYLPHENYLSULFONE] | -0.87
67 | C[C@]12CC[C@H]3[C@@H](CCC4=CC(=O)CC[C@@]43C)[C@@H]1CC[C@@H]2O [TESTOSTERONE] | 0.41
68 | O=C(CCCN1CCC(O)(c2ccc(Cl)cc2)CC1)c1ccc(F)cc1 [HALOPERIDOL] | 1.53
69 | N#Cc1ccc(O)cc1 [4-CYANOPHENOL] | -2.29

Row | Structure (SMILES) | Log PNalk
70 | COc1ccc(CCN2CCC(Nc3nc4ccccc4n3Cc3ccc(F)cc3)CC2)cc1 [ASTEMIZOLE] | 0.95
71 | Oc1ccccc1Br | 1.04
72 | COc1ccc(CN(CCN(C)C)c2ccccn2)cc1 [PYRILAMINE] | 2
73 | O=C(O)c1ccc(O)cc1 [PARABEN] | -1.82
74 | Oc1cccc(F)c1 | -0.83
75 | CCC(=O)O [PROPIONIC ACID] | -2.14
76 | Nc1ccccc1[N+](=O)[O-] [2-NITROANILINE] | 0.31
77 | Oc1c(Cl)cccc1Cl [2,6-DICHLOROPHENOL] | 1.31
78 | N#Cc1ccccc1O | -1.85
79 | Cc1ccc(Cc2cnc(NCCCCc3ncc(Br)cc3C)[nH]c2=O)cn1 [TEMELASTINE] | 1.28
80 | CN(C)CCC(c1ccc(Cl)cc1)c1ccccn1 (centres undefined) [CHLORPHENIRAMINE] | 2.09
81 | CCC1(c2ccccc2)C(=O)NC(=O)NC1=O [PHENOBARBITAL] | -2.75
82 | c1ccc(-c2ccncc2)cc1 | 1.58
83 | Cc1ccc(C(C)C)c(O)c1 [THYMOL] | 1.4
84 | CC(C(=O)O)c1cccc(C(=O)c2ccccc2)c1 (centres undefined) [KETOPROFEN] | 0
85 | CO [METHYL ALCOHOL] | -2.8
86 | O=[N+]([O-])c1ccccc1O [NITROPHENOLATE] | 1.04
87 | CN1CCC(=C2c3ccccc3CCc3cccnc32)CC1 [AZATADINE] | 1.82
88 | O=C([O-])Cc1ccccc1Nc1c(Cl)cccc1Cl.[Na+] [DICLOFENAC SODIUM] | 1.72
89 | Oc1ccc(Cl)cc1 [PARACHLOROPHENOL] | -0.12
